Measured values taken from patent US20240116985A1, “STAPLED PEPTIDES AND METHODS THEREOF” (priority 2020, published 2024).

Experiments:
[1] = molecular target: T1, full-length beta-Catenin (Uniprot ID P35222) (Homo sapiens, UniProt P35222); experiment: Fluorescence polarization IC50 (beta-catenin / 5FAM-TCF4 10-53 competition); type: binding; details: fluorescence polarization; read-out: beta-Catenin FP IC50
T1 construct: 10 nM full-length beta-Catenin (Uniprot ID P35222)
T1 sequence (P35222 1-781): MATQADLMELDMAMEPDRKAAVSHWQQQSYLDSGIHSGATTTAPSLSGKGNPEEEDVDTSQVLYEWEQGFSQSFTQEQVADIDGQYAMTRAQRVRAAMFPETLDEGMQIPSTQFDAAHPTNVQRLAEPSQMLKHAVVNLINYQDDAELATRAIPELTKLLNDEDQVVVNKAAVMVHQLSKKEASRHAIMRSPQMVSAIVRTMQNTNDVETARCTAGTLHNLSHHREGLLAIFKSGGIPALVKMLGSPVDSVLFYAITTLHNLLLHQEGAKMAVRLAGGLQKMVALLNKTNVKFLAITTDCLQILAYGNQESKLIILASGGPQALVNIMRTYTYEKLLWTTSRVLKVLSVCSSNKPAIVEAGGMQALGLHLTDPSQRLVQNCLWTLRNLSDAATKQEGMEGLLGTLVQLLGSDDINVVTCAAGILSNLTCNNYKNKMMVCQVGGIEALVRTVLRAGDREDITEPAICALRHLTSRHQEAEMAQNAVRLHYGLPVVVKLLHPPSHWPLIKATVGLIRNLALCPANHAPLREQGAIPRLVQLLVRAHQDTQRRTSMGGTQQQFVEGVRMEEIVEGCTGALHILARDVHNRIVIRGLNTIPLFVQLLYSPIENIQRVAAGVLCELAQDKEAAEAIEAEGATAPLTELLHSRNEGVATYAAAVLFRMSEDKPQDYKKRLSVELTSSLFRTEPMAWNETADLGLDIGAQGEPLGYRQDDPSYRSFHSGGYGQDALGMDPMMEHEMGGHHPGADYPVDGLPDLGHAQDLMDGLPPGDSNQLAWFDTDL

[2] = molecular target: T2, beta-catenin/TCF4 engagement (Homo sapiens, UniProt P35222); experiment: Nano-BRET target engagement assay (B-cat-Halo & TCF4-Luc in HEK293 cells); type: cell-based; details: absolute IC50; read-out: NanoBRET Abs IC50
T2 construct: expressed in transfected cells; host or cells: HEK293
T2 sequence (P35222 1-781): T1 sequence (P35222 1-781)

| IC50 [1] | IC50 [2] | Compound |
| --- | --- | --- |
| 9 nM | 3700 nM | CC(=O)N1CCC[C@]12CC=CCCCC1(CCCC=CCCCOC(=O)N3CC[C@@](C(=O)N[C@@H](Cc4ccsc4)C(=O)N[C@@H](Cc4csc5ccccc45)C(=O)N[C@@H](CCC(N)=O)C(=O)N[C@H](CO)[C@@H](C)O)(C3)NC(=O)[C@H](CC(C)C)NC(=O)[C@H](Cc3ccccc3)NC(=O)[C@H](C)NC(=O)[C@H](C)NC(=O)[C@H](CN(CC(=O)O)CC(F)(F)F)NC(=O)[C@H](CC(=O)O)NC1=O)NC(=O)[C@H](CC(C)(C)C)NC(=O)[C@H](CC(=O)O)NC2=O (stereo partly drawn) [I-1683, Ac-PL3-Asp-Npg-B5-Asp-TfeGA-Ala-Ala-Phe-Leu-PyrS2-3Thi-BztA-Gln-Thro1] |
| 11 nM | 5400 nM | CC(=O)N1CCC[C@]12CC=CCCCC1(CCCC=CCCCOC(=O)N3CC[C@@](C(=O)N[C@@H](Cc4ccccc4Cl)C(=O)N[C@@H](Cc4csc5ccccc45)C(=O)N[C@@H](CCC(N)=O)C(N)=O)(C3)NC(=O)[C@H](CC(C)C)NC(=O)[C@H](Cc3ccccc3)NC(=O)[C@H](C)NC(=O)C(C)(C)NC(=O)[C@H](Cc3cccc(C(=O)O)c3)NC(=O)[C@H](CC(=O)O)NC1=O)NC(=O)[C@H](CC(C)(C)C)NC(=O)[C@H](CC(=O)O)NC2=O (stereo partly drawn) [I-1686, Ac-PL3-Asp-Npg-B5-Asp-3COOHF-Aib-Ala-Phe-Leu-PyrS2-2C1F-BztA-Gln-NH2] |
| 42 nM | 18600 nM | CC(=O)N1CCC[C@]12CC=CCCCC1(CCCC=CCCCOC(=O)N3CC[C@@](C(=O)N[C@@H](Cc4ccccc4Cl)C(=O)N[C@@H](Cc4csc5ccccc45)C(=O)N[C@@H](CCC(N)=O)C(N)=O)(C3)NC(=O)[C@H](CC(C)C)NC(=O)[C@H](Cc3ccccc3)NC(=O)CNC(=O)[C@H](C)NC(=O)[C@H](Cc3cccc(C(=O)O)c3)NC(=O)[C@H](CC(=O)O)NC1=O)NC(=O)[C@H](CC(C)(C)C)NC(=O)[C@H](CC(=O)O)NC2=O (stereo partly drawn) [I-1687, Ac-PL3-Asp-Npg-B5-Asp-3COOHF-Ala-Gly-Phe-Leu-PyrS2-2C1F-BztA-Gln-NH2] |
| 59 nM | 21500 nM | CCCC[C@@H]1NC(=O)[C@H](Cc2cccc(C(=O)O)c2)NC(=O)[C@H](CC(=O)O)NC(=O)C2(CCCC=CCCCOC(=O)N3CC[C@@](C(=O)N[C@@H](Cc4ccccc4Cl)C(=O)N[C@@H](Cc4csc5ccccc45)C(=O)N[C@@H](CCC(N)=O)C(N)=O)(C3)NC(=O)[C@H](CC(C)C)NC(=O)[C@H](Cc3ccccc3)NC(=O)CNC1=O)CCCC=CC[C@]1(CCCN1C(C)=O)C(=O)N[C@@H](CC(=O)O)C(=O)N[C@@H](CC(C)(C)C)C(=O)N2 (stereo partly drawn) [I-1688, Ac-PL3-Asp-Npg-B5-Asp-3COOHF-nLeu-Gly-Phe-Leu-PyrS2-2C1F-BztA-Gln-NH2] |
| 25.5 nM | 12500 nM | CC(=O)N1CCC[C@]12CC=CCCCC1(CCCC=CCCCOC(=O)N3CC[C@@](C(=O)N[C@@H](Cc4ccccc4Cl)C(=O)N[C@@H](Cc4csc5ccccc45)C(=O)N[C@@H](CCC(N)=O)C(N)=O)(C3)NC(=O)[C@H](CC(C)C)NC(=O)[C@H](Cc3ccccc3)NC(=O)CNC(=O)C(C)(C)NC(=O)[C@H](Cc3cccc(C(=O)O)c3)NC(=O)[C@H](CC(=O)O)NC1=O)NC(=O)[C@H](CC(C)(C)C)NC(=O)[C@H](CC(=O)O)NC2=O (stereo partly drawn) [I-1689, Ac-PL3-Asp-Npg-B5-Asp-3COOHF-Aib-Gly-Phe-Leu-PyrS2-2C1F-BztA-Gln-NH2] |
| 11 nM | 12800 nM | CC(=O)N1CCC[C@]12CC=CCCCC1(CCCC=CCCCOC(=O)N3CC[C@@](C(=O)N[C@@H](Cc4ccccc4Cl)C(=O)N[C@@H](Cc4csc5ccccc45)C(=O)N[C@@H](CCC(N)=O)C(N)=O)(C3)NC(=O)[C@H]([C@@H](C)O)NC(=O)[C@H](Cc3ccccc3)NC(=O)[C@H](C)NC(=O)CNC(=O)[C@H](CN(CC(=O)O)CC(F)(F)F)NC(=O)[C@H](CC(=O)O)NC1=O)NC(=O)[C@H](CC(C)(C)C)NC(=O)[C@H](CC(=O)O)NC2=O (stereo partly drawn) [I-1691, Ac-PL3-Asp-Npg-B5-Asp-TfeGA-Gly-Ala-Phe-Thr-PyrS2-2C1F-BztA-Gln-NH2] |
| 17 nM | 10400 nM | CCCC[C@@H]1NC(=O)[C@H](CN(CC(=O)O)CC(F)(F)F)NC(=O)[C@H](CC(=O)O)NC(=O)C2(CCCC=CCCCOC(=O)N3CC[C@@](C(=O)N[C@@H](Cc4ccccc4Cl)C(=O)N[C@@H](Cc4csc5ccccc45)C(=O)N[C@@H](CCC(N)=O)C(N)=O)(C3)NC(=O)[C@H]([C@@H](C)O)NC(=O)[C@H](Cc3ccccc3)NC(=O)[C@H](C)NC1=O)CCCC=CC[C@]1(CCCN1C(C)=O)C(=O)N[C@@H](CC(=O)O)C(=O)N[C@@H](CC(C)(C)C)C(=O)N2 (stereo partly drawn) [I-1692, Ac-PL3-Asp-Npg-B5-Asp-TfeGA-nLeu-Ala-Phe-Thr-PyrS2-2C1F-BztA-Gln-NH2] |
| 10 nM | 4600 nM | CC(=O)N1CCC[C@]12CC=CCCCC1(CCCC=CCCCOC(=O)N3CC[C@@](C(=O)N[C@@H](Cc4ccccc4Cl)C(=O)N[C@@H](Cc4csc5ccccc45)C(=O)N[C@@H](CCC(N)=O)C(N)=O)(C3)NC(=O)[C@H]([C@@H](C)O)NC(=O)[C@H](Cc3ccccc3)NC(=O)[C@H](C)NC(=O)C(C)(C)NC(=O)[C@H](CN(CC(=O)O)CC(F)(F)F)NC(=O)[C@H](CC(=O)O)NC1=O)NC(=O)[C@H](CC(C)(C)C)NC(=O)[C@H](CC(=O)O)NC2=O (stereo partly drawn) [I-1693, Ac-PL3-Asp-Npg-B5-Asp-TfeGA-Aib-Ala-Phe-Thr-PyrS2-2C1F-BztA-Gln-NH2] |
| 57 nM | 43600 nM | CC(=O)N1CCC[C@]12CC=CCCCC1(CCCC=CCCCOC(=O)N3CC[C@@](C(=O)N[C@@H](Cc4ccccc4Cl)C(=O)N[C@@H](Cc4csc5ccccc45)C(=O)N[C@@H](CCC(N)=O)C(N)=O)(C3)NC(=O)[C@H]([C@@H](C)O)NC(=O)[C@H](Cc3ccccc3)NC(=O)CNC(=O)[C@H](C)NC(=O)[C@H](CN(CC(=O)O)CC(F)(F)F)NC(=O)[C@H](CC(=O)O)NC1=O)NC(=O)[C@H](CC(C)(C)C)NC(=O)[C@H](CC(=O)O)NC2=O (stereo partly drawn) [I-1694, Ac-PL3-Asp-Npg-B5-Asp-TfeGA-Ala-Gly-Phe-Thr-PyrS2-2C1F-BztA-Gln-NH2] |
| 93 nM | > 20000 nM | CCCC[C@@H]1NC(=O)[C@H](CN(CC(=O)O)CC(F)(F)F)NC(=O)[C@H](CC(=O)O)NC(=O)C2(CCCC=CCCCOC(=O)N3CC[C@@](C(=O)N[C@@H](Cc4ccccc4Cl)C(=O)N[C@@H](Cc4csc5ccccc45)C(=O)N[C@@H](CCC(N)=O)C(N)=O)(C3)NC(=O)[C@H]([C@@H](C)O)NC(=O)[C@H](Cc3ccccc3)NC(=O)CNC1=O)CCCC=CC[C@]1(CCCN1C(C)=O)C(=O)N[C@@H](CC(=O)O)C(=O)N[C@@H](CC(C)(C)C)C(=O)N2 (stereo partly drawn) [I-1695, Ac-PL3-Asp-Npg-B5-Asp-TfeGA-nLeu-Gly-Phe-Thr-PyrS2-2C1F-BztA-Gln-NH2] |
| 32 nM | 35500 nM | CC(=O)N1CCC[C@]12CC=CCCCC1(CCCC=CCCCOC(=O)N3CC[C@@](C(=O)N[C@@H](Cc4ccccc4Cl)C(=O)N[C@@H](Cc4csc5ccccc45)C(=O)N[C@@H](CCC(N)=O)C(N)=O)(C3)NC(=O)[C@H]([C@@H](C)O)NC(=O)[C@H](Cc3ccccc3)NC(=O)CNC(=O)C(C)(C)NC(=O)[C@H](CN(CC(=O)O)CC(F)(F)F)NC(=O)[C@H](CC(=O)O)NC1=O)NC(=O)[C@H](CC(C)(C)C)NC(=O)[C@H](CC(=O)O)NC2=O (stereo partly drawn) [I-1696, Ac-PL3-Asp-Npg-B5-Asp-TfeGA-Aib-Gly-Phe-Thr-PyrS2-2C1F-BztA-Gln-NH2] |
| 179 nM | > 20000 nM | CC(=O)N1CCC[C@]12CCCCCCC1(CCCCCCCCCOC(=O)N3CC[C@@](C(=O)N[C@@H](Cc4ccsc4)C(=O)N[C@@H](Cc4csc5ccccc45)C(=O)N[C@@H](CCC(N)=O)C(N)=O)(C3)NC(=O)[C@H](CC(C)C)NC(=O)[C@H](Cc3ccccc3)NC(=O)[C@H](C)NC(=O)[C@H](C)NC(=O)[C@H](CN(CC(=O)O)CC(F)(F)F)NC(=O)[C@H](CC(=O)O)NC1=O)NC(=O)[C@H](CC(C)(C)C)NC(=O)[C@H](CC(=O)O)NC2=O (stereo partly drawn) [I-1697, Ac-PL3-Asp-Npg-B5-Asp-TfeGA-Ala-Ala-Phe-Leu-PyrS3-3Thi-BztA-Gln-NH2] |
| 165 nM | > 20000 nM | CC(=O)N1CCC[C@]12CCCCCCC1(CCCCCCCCCCC[C@@](C)(C(=O)N[C@@H](Cc3ccsc3)C(=O)N[C@@H](Cc3csc4ccccc34)C(=O)N[C@@H](CCC(N)=O)C(N)=O)NC(=O)[C@H](CC(C)C)NC(=O)[C@H](Cc3ccccc3)NC(=O)[C@H](C)NC(=O)[C@H](C)NC(=O)[C@H](CN(CC(=O)O)CC(F)(F)F)NC(=O)[C@H](CC(=O)O)NC1=O)NC(=O)[C@H](CC(C)(C)C)NC(=O)[C@H](CC(=O)O)NC2=O (stereo partly drawn) [I-1698, Ac-PL3-Asp-Npg-B5-Asp-TfeGA-Ala-Ala-Phe-Leu-S8-3Thi-BztA-Gln-NH2] |
